This is an account of results in ChEMBL document CHEMBL1148760, “Novel generation of pH indicators for proton magnetic resonance spectroscopic imaging” (J Med Chem, 2007).

Data set [1] can be described thus: Dissociation constant, pKa in deuterated water solution. The data set is classed as physicochemical. Conditions: read-out: Apparent_pKa.
For data set [2], the system named is C6. Nature of the data set: Cytotoxicity in rat C6 cells assessed as intracellular release of lactic dehydrogenase. The data set is classed as functional.
A short description of data set [3]: Dissociation constant, pKa in presence of fetal bovine serum. The data set is classed as physicochemical. The settings on record: cattle, solution containing fetal bovine serum; read-out: Apparent_pKa.

In the case of `OC(Cn1ccnc1)Cn1ccnc1`, the pKa in data set [1] came out at 6.45.

For the molecule `O[C@@H](Cn1ccnc1)[C@@H](O)Cn1ccnc1`, the Activity in data set [2] is on record as under 10%. For the same molecule, the pKa was found to be 6.56 in data set [1] and 6.67 in data set [3].

Take `O[C@@H]([C@H](O)[C@H](O)Cn1ccnc1)[C@H](O)Cn1ccnc1`: in data set [2], the Activity was under 10%. In addition, the results for the pKa in data set [1] and in data set [3] were 7 and 6.63, respectively.
